How the values were obtained:
Experiment in all cases: KINOMEscan competition binding
Settings in all cases: compound 10.0 µM
ALK (human) = ALK (human) (UniProt Q9UM73)
AURKC (human) = AURKC (human) (UniProt Q9UQB9)
CIT (human) = CIT (human) (UniProt O14578)
CLK1 (human) = CLK1 (human) (UniProt P49759)
CLK4 (human) = CLK4 (human) (UniProt Q9HAZ1)
CSNK2A2 (human) = CSNK2A2 (human) (UniProt P19784)
DCLK2 (human) = DCLK2 (human) (UniProt Q8N568)
DYRK1B (human) = DYRK1B (human) (UniProt Q9Y463)
[1] = tested on: EIF2AK4 KD2 (human), Q9P2K8 [S808G]
FLT4 (human) = FLT4 (human) (UniProt P35916)
GAK (human) = GAK (human) (UniProt O14976)
IRAK1 (human) = IRAK1 (human) (UniProt P51617)
[2] = biological target: JAK2 JH1 catalytic (human) (UniProt O60674)
[3] = biological target: JAK3 JH1 catalytic (human) (UniProt P52333)
MAP2K1 (human) = MAP2K1 (human) (UniProt Q02750)
MAP3K12 (human) = MAP3K12 (human) (UniProt Q12852)
MAP3K6 (human) = MAP3K6 (human) (UniProt O95382)
MAP4K5 (human) = MAP4K5 (human) (UniProt Q9Y4K4)
MAPK10 (human) = MAPK10 (human) (UniProt P53779)
MAPK8 (human) = MAPK8 (human) (UniProt P45983)
MAPKAPK2 (human) = MAPKAPK2 (human) (UniProt P49137)
MARK3 (human) = MARK3 (human) (UniProt P27448)
MAST1 (human) = MAST1 (human) (UniProt Q9Y2H9)
MYLK2 (human) = MYLK2 (human) (UniProt Q9H1R3)
NIM1 (human) = NIM1 (human) (UniProt Q8IY84)
PHKG1 (human) = PHKG1 (human) (UniProt Q16816)
PHKG2 (human) = PHKG2 (human) (UniProt P15735)
PI4KB (human) = PI4KB (human) (UniProt Q9UBF8)
PIK3CB (human) = PIK3CB (human) (UniProt P42338)
PIM2 (human) = PIM2 (human) (UniProt Q9P1W9)
PIM3 (human) = PIM3 (human) (UniProt Q86V86)
PRKCE (human) = PRKCE (human) (UniProt Q02156)
[4] = tested on: RET (human), P07949 [M918T]
RIOK2 (human) = RIOK2 (human) (UniProt Q9BVS4)
SLK (human) = SLK (human) (UniProt Q9H2G2)
SRPK1 (human) = SRPK1 (human) (UniProt Q96SB4)
SRPK3 (human) = SRPK3 (human) (UniProt Q9UPE1)
STK17A (human) = STK17A (human) (UniProt Q9UEE5)
STK25 (human) = STK25 (human) (UniProt O00506)
TEK (human) = TEK (human) (UniProt Q02763)
ZAP70 (human) = ZAP70 (human) (UniProt P43403)

Sequence of DCLK2 (human) (Q8N568 whole entry, looked up): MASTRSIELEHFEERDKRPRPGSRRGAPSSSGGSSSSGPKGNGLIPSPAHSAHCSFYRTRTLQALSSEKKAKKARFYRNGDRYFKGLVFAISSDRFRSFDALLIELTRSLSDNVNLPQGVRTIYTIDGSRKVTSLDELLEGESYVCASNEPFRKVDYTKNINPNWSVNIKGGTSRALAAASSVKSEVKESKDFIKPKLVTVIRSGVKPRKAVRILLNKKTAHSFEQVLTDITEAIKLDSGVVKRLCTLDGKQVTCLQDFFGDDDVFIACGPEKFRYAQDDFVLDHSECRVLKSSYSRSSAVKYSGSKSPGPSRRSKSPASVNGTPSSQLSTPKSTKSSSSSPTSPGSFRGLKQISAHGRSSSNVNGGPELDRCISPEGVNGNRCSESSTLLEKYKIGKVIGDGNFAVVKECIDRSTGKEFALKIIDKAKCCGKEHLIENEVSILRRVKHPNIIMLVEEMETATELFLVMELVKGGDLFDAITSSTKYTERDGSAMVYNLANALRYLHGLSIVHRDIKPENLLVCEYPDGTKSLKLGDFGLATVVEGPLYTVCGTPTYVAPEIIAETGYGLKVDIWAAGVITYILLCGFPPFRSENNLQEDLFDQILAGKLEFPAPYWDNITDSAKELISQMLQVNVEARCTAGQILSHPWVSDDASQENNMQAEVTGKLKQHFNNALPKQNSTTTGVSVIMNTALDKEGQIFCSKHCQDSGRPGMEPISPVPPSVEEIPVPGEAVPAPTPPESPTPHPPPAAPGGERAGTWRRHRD
Sequence of SLK (human) (Q9H2G2 whole entry, looked up): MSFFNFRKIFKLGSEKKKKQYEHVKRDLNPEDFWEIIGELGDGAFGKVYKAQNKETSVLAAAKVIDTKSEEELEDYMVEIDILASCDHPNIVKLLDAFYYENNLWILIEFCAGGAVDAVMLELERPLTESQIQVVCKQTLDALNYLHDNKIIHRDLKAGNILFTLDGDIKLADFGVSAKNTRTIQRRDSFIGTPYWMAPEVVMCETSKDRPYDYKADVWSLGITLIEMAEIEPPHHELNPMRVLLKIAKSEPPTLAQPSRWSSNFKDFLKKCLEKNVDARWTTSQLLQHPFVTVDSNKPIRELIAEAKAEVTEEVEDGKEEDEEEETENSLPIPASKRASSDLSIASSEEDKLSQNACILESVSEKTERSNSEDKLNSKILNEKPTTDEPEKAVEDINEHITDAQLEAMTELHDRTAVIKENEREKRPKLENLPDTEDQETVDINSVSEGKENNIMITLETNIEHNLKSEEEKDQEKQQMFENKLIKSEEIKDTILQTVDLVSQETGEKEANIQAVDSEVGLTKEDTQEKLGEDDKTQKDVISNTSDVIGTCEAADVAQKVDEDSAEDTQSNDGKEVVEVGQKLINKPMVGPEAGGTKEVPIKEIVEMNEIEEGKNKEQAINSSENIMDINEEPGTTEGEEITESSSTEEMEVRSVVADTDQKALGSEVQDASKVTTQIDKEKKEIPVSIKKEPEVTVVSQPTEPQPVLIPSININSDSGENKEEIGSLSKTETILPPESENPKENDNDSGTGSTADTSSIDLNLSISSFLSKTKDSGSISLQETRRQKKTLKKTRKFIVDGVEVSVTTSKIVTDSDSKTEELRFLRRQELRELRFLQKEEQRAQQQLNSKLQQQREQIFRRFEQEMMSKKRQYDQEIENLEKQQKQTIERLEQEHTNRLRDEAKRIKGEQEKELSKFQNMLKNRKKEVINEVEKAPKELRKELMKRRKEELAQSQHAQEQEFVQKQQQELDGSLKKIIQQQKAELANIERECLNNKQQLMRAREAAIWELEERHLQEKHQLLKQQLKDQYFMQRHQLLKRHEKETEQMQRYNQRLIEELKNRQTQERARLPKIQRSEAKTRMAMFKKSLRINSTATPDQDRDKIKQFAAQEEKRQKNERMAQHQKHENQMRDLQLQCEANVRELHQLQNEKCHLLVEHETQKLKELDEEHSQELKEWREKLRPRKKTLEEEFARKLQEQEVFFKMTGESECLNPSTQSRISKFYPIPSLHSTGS
Sequence of MAPK8 (human) (P45983 whole entry, looked up): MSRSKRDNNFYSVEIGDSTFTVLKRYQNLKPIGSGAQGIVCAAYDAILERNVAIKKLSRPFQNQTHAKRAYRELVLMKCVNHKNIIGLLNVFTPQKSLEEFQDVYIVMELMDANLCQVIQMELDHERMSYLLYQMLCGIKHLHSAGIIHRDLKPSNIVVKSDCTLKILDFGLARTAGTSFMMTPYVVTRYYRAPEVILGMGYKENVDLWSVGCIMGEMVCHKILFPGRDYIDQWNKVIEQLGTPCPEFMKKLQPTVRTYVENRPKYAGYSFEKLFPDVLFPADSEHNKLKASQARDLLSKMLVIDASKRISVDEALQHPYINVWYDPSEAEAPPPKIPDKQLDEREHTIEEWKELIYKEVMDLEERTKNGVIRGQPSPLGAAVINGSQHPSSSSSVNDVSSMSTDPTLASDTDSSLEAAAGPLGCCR
Sequence of GAK (human) (O14976 whole entry, looked up): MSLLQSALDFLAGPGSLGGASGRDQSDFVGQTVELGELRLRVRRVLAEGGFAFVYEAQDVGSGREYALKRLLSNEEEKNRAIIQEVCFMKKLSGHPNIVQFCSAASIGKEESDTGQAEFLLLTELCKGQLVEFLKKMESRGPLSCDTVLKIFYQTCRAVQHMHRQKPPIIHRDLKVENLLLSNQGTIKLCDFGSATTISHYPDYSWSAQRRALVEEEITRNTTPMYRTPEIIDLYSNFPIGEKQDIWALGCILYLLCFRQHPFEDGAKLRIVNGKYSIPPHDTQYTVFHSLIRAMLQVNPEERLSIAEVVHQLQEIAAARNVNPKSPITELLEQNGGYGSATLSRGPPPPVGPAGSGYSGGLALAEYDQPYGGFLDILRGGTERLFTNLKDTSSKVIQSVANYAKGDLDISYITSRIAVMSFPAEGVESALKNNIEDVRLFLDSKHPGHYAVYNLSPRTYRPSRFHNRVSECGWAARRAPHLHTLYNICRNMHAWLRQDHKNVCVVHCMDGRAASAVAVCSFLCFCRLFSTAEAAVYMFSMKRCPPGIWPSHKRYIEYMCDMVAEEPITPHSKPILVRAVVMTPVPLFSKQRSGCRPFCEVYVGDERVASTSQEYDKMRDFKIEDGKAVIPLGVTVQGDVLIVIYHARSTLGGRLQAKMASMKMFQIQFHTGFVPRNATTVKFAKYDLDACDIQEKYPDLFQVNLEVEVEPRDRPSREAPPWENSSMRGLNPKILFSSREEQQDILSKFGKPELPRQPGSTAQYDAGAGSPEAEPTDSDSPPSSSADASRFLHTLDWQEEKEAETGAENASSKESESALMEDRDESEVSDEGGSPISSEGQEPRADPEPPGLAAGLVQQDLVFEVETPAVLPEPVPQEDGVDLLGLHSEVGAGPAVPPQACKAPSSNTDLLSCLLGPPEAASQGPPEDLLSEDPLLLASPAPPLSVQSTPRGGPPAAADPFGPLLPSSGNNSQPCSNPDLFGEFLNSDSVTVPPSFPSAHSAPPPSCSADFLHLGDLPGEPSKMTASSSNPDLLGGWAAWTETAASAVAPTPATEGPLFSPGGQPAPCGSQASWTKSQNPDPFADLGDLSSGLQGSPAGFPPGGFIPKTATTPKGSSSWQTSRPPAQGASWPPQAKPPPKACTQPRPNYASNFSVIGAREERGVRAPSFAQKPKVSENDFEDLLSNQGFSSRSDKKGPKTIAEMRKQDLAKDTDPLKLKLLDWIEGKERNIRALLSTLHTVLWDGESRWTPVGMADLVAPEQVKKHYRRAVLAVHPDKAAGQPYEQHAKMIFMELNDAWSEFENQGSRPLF
Sequence of FLT4 (human) (P35916 whole entry, looked up): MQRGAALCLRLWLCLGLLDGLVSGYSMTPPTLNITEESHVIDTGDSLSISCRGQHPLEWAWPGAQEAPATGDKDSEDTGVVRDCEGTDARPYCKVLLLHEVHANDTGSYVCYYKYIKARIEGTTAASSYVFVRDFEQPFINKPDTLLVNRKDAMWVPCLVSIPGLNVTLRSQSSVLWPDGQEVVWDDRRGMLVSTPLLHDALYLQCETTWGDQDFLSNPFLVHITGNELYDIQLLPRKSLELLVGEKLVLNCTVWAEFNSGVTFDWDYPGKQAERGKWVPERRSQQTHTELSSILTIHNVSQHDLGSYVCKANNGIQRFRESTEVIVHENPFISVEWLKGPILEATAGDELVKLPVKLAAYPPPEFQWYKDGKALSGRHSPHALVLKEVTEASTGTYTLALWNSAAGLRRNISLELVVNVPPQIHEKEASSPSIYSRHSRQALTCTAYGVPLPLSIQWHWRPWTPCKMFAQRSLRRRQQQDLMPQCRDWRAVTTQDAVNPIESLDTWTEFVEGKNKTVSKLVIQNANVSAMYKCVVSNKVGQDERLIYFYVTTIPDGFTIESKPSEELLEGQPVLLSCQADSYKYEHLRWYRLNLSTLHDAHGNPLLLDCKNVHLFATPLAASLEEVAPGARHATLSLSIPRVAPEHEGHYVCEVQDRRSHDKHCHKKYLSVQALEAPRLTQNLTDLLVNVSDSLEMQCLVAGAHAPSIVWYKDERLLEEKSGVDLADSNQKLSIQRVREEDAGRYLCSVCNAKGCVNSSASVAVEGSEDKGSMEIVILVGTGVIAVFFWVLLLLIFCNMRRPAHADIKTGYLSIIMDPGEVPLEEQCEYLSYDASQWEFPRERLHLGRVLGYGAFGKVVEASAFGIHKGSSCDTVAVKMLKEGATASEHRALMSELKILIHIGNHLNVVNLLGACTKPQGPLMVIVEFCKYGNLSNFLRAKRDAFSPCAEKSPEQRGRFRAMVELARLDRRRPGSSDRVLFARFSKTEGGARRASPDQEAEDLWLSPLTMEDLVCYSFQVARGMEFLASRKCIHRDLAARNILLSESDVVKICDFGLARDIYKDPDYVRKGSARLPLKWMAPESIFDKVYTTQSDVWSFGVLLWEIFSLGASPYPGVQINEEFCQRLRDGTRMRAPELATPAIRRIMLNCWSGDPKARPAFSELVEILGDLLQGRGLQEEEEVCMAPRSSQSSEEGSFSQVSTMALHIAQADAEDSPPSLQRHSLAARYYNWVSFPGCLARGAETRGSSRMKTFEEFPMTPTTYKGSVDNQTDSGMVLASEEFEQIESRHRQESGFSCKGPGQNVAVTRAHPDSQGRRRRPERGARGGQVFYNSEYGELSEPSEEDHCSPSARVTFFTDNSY

## Cc1cnc(-c2cnc(NCCNc3ccc(C#N)cn3)nc2-c2ccc(Cl)cc2Cl)[nH]1
ALK (human)
  kinase still bound, per cent of control: 100%
AURKC (human)
  kinase still bound, per cent of control: 92%
CIT (human)
  kinase still bound, per cent of control: 100%
CLK1 (human)
  kinase still bound, per cent of control: 49%
CLK4 (human)
  kinase still bound, per cent of control: 62%
CSNK2A2 (human)
  kinase still bound, per cent of control: 100%
DCLK2 (human)
  kinase still bound, per cent of control: 100%
DYRK1B (human)
  kinase still bound, per cent of control: 100%
[1]
  kinase still bound, per cent of control: 100%
FLT4 (human)
  kinase still bound, per cent of control: 100%
GAK (human)
  kinase still bound, per cent of control: 79%
IRAK1 (human)
  kinase still bound, per cent of control: 100%
[2]
  kinase still bound, per cent of control: 100%
[3]
  kinase still bound, per cent of control: 100%
MAP2K1 (human)
  kinase still bound, per cent of control: 100%
MAP3K12 (human)
  kinase still bound, per cent of control: 100%
MAP3K6 (human)
  kinase still bound, per cent of control: 80%
MAP4K5 (human)
  kinase still bound, per cent of control: 100%
MAPK10 (human)
  kinase still bound, per cent of control: 64%
MAPK8 (human)
  kinase still bound, per cent of control: 94%
MAPKAPK2 (human)
  kinase still bound, per cent of control: 100%
MARK3 (human)
  kinase still bound, per cent of control: 100%
MAST1 (human)
  kinase still bound, per cent of control: 79%
MYLK2 (human)
  kinase still bound, per cent of control: 97%
NIM1 (human)
  kinase still bound, per cent of control: 100%
PHKG1 (human)
  kinase still bound, per cent of control: 100%
PHKG2 (human)
  kinase still bound, per cent of control: 100%
PI4KB (human)
  kinase still bound, per cent of control: 93%
PIK3CB (human)
  kinase still bound, per cent of control: 100%
PIM2 (human)
  kinase still bound, per cent of control: 89%
PIM3 (human)
  kinase still bound, per cent of control: 95%
PRKCE (human)
  kinase still bound, per cent of control: 100%
[4]
  kinase still bound, per cent of control: 100%
RIOK2 (human)
  kinase still bound, per cent of control: 22%
SLK (human)
  kinase still bound, per cent of control: 63%
SRPK1 (human)
  kinase still bound, per cent of control: 100%
SRPK3 (human)
  kinase still bound, per cent of control: 100%
STK17A (human)
  kinase still bound, per cent of control: 85%
STK25 (human)
  kinase still bound, per cent of control: 90%
TEK (human)
  kinase still bound, per cent of control: 100%
ZAP70 (human)
  kinase still bound, per cent of control: 100%

## O=C1Nc2cc(Br)ccc2/C1=C1/Nc2ccccc2/C1=N\O
ALK (human)
  kinase still bound, per cent of control: 44%
AURKC (human)
  kinase still bound, per cent of control: 0.75%
CIT (human)
  kinase still bound, per cent of control: 29%
CLK1 (human)
  kinase still bound, per cent of control: 34%
CLK4 (human)
  kinase still bound, per cent of control: 99%
CSNK2A2 (human)
  kinase still bound, per cent of control: 8%
DCLK2 (human)
  kinase still bound, per cent of control: 100%
DYRK1B (human)
  kinase still bound, per cent of control: 13%
[1]
  kinase still bound, per cent of control: 14%
FLT4 (human)
  kinase still bound, per cent of control: 2.5%
GAK (human)
  kinase still bound, per cent of control: 2.1%
IRAK1 (human)
  kinase still bound, per cent of control: 39%
[2]
  kinase still bound, per cent of control: 25%
[3]
  kinase still bound, per cent of control: 6.3%
MAP2K1 (human)
  kinase still bound, per cent of control: 37%
MAP3K12 (human)
  kinase still bound, per cent of control: 19%
MAP3K6 (human)
  kinase still bound, per cent of control: 41%
MAP4K5 (human)
  kinase still bound, per cent of control: 9.2%
MAPK10 (human)
  kinase still bound, per cent of control: 12%
MAPK8 (human)
  kinase still bound, per cent of control: 23%
MAPKAPK2 (human)
  kinase still bound, per cent of control: 100%
MARK3 (human)
  kinase still bound, per cent of control: 28%
MAST1 (human)
  kinase still bound, per cent of control: 2.8%
MYLK2 (human)
  kinase still bound, per cent of control: 3%
NIM1 (human)
  kinase still bound, per cent of control: 85%
PHKG1 (human)
  kinase still bound, per cent of control: 15%
PHKG2 (human)
  kinase still bound, per cent of control: 5.6%
PI4KB (human)
  kinase still bound, per cent of control: 39%
PIK3CB (human)
  kinase still bound, per cent of control: 88%
PIM2 (human)
  kinase still bound, per cent of control: 52%
PIM3 (human)
  kinase still bound, per cent of control: 30%
PRKCE (human)
  kinase still bound, per cent of control: 90%
[4]
  kinase still bound, per cent of control: 0%
RIOK2 (human)
  kinase still bound, per cent of control: 18%
SLK (human)
  kinase still bound, per cent of control: 44%
SRPK1 (human)
  kinase still bound, per cent of control: 5%
SRPK3 (human)
  kinase still bound, per cent of control: 0.25%
STK17A (human)
  kinase still bound, per cent of control: 0%
STK25 (human)
  kinase still bound, per cent of control: 18%
TEK (human)
  kinase still bound, per cent of control: 78%
ZAP70 (human)
  kinase still bound, per cent of control: 90%

Reference: the kinase profiling compilation of Christmann-Franck et al. (2016)
